# Measured values from patent publication US9365572B2, “PI3K and/or mTOR inhibitor” (XUANZHU PHARMA CO., LTD., priority 2012, dated 2016).
# Key:
# AKT1 = AKT1 (Homo sapiens (Human), UniProt P31749); assay: Kinase selectivity, Mobility shift assay; assay type: biochemical
# Description: (§1) Object: In this assay, the inhibitory activity of the test substance on the kinases listed in Table 3 was determined, and therefore the selectivity of the present compound was determined.
# (§2) Except for the BRAF V600E kinase in Table 3, the Mobility shift assay was used for other kinases.
# (§3) 1. Preparation of Agents:
# (§4) • 1.1 1-fold kinase buffer without MnCl2: 50 mM HEPES, pH 7.5, 0.0015% Brij-35, 10 mM MgCl2, 2 mM DTT. • 1.2 1-fold kinase buffer with MnCl2: 50 mM HEPES, pH 7.5, 0.0015% Brij-35, 10 mM MgCl2, 10 mM MnCl2, 2 mM DTT. • 1.3 Termination solution: 100 mM HEPES, pH 7.5, 0.0015% Brij-35, 0.2% Coating Reagent#3, 50 mM EDTA. • 1.4 2.5-fold kinase solution: The kinase was added to the 1-fold kinase buffer to form a 2.5-fold kinase solution. • 1.5 2.5-fold substrate solution: FAM fluorescence-labelled polypeptide and ATP were added to the 1-fold kinase buffer to form a 2.5-fold substrate solution. 2. Preparation of 5-fold compound
# (§5) The final test concentration of the compound was 10 μM at maximum. Firstly, a 50-fold concentration (i.e. 500 μM) was prepared with 100% DMSO. The compound was diluted with 100% DMSO by 5 folds at 5 concentrations (successively 500 μM, 100 μM, 20 μM, 4 μM, and 0.8 μM). After diluting with 1-fold kinase buffer by 10 folds, 5 μl of the samples were transferred to a 384-well reaction plate. Two negative control wells and two positive control wells were set at each line respectively. Replication was made in a 96-well plate in five concentrations of 5-fold compound. 10% DMSO was added to the positive control well, and 5 μl of EDTA (250 mM) was added to the negative control well.
# (§6) • 3.1 To the 384-well reaction plate was added 5-fold compound dissolved in 10% DMSO at 5 μl/well. • 3.2 To the 384-well reaction plate was added 2.5-fold kinase solution at 10 μl/well. The plate was incubated at room temperature for 10 mins. • 3.3 To the 384-well reaction plate was added 2.5-fold substrate solution at 10 μl/well. The plate was incubated at 28° C. for a certain period. • 3.4 25 μl termination solution was added to terminate the reaction. The conversion was read from Caliper. 4. Inhibition rate calculation Inhibition rate (%)=(maximum−sample value)/(maximum−minimum)×100 • wherein: • maximum refers to the conversion at the DMSO control well, • minimum refers to the conversion at the control well without kinase. Lanthascreen Analysis Method for the BRAF V600E Kinase 1. Preparation of Agents: • 1.1 2-fold kinase solution: using 1-fold kinase buffer to prepare 2-fold kinase solution, with a final concentration of 0.35 nM of BRAFV600E; • 1.2 4-fold substrate solution: using 1-fold kinase buffer to prepare 4-fold substrate solution, with a final substrate solution concentration of 0.2 μM of Fluorescein-MAP2K1 and 1.5 μM of ATP. 2. Preparation of 4-fold compound • The final test concentration of the compound was 10 μM at maximum. Firstly, a 100-fold concentration (i.e. 1000 μM) was prepared with 100% DMSO. The compound was diluted with 100% DMSO by 5 folds at 5 concentrations. The compound series was identical to that in the Mobility Shift Assay. After diluting with 1-fold kinase buffer by 25 folds, the resulting samples were shaked and mixed evenly on a plate-shaker for 10 mins. 3. Procedure • 3.1 To the 384-well reaction plate was added 4-fold compound dissolved in 10% DMSO at 2.5 µl/well; • 3.2 To the 384-well reaction plate was added 2-fold kinase solution at 5 μl/well, and to the negative control wells were added 1-fold kinase buffer. The samples were shaked, mixed evenly, and kept standing at room temperature. • 3.3 To the 384-well reaction plate was added 4-fold substrate solution at 2.5 μl/well. The plate was reacted, shaked, mixed evenly and incubated at room temperature for one hour; • 3.4 Reaction result detection: 2-fold detection solution was prepared, with a final concentration of 2 nM of Antibody and 10 mM of EDTA. 10 μl of the detection solution was transferred to the 384-well plate to terminate the reaction. […]
# CSK = CSK (Homo sapiens (Human), UniProt P41240); assay: Kinase selectivity, Mobility shift assay; assay type: biochemical
# Sequence of CSK (P41240 whole entry, species assumed): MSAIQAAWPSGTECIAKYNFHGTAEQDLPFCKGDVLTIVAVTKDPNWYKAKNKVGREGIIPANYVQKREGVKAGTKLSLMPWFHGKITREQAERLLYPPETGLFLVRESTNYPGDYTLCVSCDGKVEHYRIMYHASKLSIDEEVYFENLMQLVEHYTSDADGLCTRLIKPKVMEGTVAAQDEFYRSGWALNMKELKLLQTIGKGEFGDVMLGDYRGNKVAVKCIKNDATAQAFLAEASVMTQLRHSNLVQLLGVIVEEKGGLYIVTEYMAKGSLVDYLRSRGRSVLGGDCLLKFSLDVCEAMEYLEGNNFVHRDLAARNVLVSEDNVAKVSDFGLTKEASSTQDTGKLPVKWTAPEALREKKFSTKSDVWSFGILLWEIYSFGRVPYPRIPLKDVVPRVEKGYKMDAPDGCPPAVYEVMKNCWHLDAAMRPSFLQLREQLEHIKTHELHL
# Description: as §1, §2, §3, §4, §5, §6
# IGF1R = IGF1R (Homo sapiens (Human), UniProt P08069); assay: Kinase selectivity, Mobility shift assay; assay type: biochemical
# Sequence of IGF1R (P08069 31-1367, species assumed): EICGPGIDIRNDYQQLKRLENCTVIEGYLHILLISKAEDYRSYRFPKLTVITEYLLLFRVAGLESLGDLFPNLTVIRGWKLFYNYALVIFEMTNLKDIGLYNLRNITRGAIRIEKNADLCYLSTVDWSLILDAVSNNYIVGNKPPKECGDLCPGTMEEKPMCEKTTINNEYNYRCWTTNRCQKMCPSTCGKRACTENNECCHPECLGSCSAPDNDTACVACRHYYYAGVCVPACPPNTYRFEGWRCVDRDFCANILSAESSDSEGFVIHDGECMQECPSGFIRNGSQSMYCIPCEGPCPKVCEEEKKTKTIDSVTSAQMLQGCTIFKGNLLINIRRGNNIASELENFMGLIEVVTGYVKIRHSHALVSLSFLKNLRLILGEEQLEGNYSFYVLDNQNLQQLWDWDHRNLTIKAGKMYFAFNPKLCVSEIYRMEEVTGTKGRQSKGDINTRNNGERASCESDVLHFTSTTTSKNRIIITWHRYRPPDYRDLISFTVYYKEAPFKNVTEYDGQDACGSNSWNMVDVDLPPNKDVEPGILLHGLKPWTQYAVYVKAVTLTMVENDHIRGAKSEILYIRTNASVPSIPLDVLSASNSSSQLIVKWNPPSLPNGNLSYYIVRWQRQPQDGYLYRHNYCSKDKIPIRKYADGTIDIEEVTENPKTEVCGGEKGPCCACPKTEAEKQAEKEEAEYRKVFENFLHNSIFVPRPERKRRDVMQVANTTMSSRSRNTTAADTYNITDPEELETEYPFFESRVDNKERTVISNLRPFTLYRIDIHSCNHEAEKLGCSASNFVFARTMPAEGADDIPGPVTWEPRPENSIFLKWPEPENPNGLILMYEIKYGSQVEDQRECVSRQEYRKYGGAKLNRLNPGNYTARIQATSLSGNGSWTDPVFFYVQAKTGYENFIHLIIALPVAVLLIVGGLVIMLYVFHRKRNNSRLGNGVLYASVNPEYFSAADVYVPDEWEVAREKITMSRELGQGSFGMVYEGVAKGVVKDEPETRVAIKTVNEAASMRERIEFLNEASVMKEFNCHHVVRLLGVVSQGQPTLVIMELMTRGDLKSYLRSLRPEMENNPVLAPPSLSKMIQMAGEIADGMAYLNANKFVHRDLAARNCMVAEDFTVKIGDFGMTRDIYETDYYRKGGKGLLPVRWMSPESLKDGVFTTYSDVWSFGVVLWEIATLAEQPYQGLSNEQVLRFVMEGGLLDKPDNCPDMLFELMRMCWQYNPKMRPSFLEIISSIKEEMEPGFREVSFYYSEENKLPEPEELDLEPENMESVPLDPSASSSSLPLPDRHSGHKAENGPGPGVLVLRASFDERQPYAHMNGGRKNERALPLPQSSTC
# Description: as §1, §2, §3, §4, §5, §6
# MST2 = MST2 (Homo sapiens (Human), UniProt Q13188); assay: Kinase selectivity, Mobility shift assay; assay type: biochemical
# Sequence of MST2 (Q13188 whole entry, species assumed): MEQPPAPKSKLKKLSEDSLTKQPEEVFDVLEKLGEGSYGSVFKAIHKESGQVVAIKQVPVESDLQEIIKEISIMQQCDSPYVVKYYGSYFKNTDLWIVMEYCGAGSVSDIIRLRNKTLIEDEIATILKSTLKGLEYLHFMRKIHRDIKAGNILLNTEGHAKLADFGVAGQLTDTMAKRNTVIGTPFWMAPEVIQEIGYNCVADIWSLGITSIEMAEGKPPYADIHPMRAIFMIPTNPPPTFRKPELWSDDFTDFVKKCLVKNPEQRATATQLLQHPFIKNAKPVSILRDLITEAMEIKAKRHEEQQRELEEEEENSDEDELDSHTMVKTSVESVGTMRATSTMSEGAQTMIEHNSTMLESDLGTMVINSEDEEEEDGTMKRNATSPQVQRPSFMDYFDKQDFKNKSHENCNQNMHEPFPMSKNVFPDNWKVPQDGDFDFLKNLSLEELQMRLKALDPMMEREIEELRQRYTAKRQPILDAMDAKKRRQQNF
# Description: as §1, §2, §3, §4, §5, §6
# Tie2 = Tie2 (Homo sapiens (Human), UniProt Q02763); assay: Kinase selectivity, Mobility shift assay; assay type: biochemical
# Description: as §1, §2, §3, §4, §5, §6
# Adenosine A1 = Adenosine A1 (Homo sapiens (Human), UniProt P30542); assay: Radioligand binding assay No. 200510; conditions: test substance 10 μM, read-out: Inhibitory rate (%), Adenosine A1
# Sequence of Adenosine A1 (P30542 whole entry): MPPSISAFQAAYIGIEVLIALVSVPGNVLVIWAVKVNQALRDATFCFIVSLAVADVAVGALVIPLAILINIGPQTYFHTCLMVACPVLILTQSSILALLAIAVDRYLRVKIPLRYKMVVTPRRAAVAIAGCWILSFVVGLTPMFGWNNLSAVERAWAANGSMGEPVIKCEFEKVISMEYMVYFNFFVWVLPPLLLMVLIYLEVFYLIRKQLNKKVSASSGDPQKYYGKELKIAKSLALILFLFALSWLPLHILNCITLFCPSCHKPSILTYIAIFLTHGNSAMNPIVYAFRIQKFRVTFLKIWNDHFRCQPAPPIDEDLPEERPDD
# Dopamine D1 = Dopamine D1 (Homo sapiens (Human), UniProt P21728); assay: Radioligand binding assay No. 219500; conditions: test substance 10 μM, read-out: Inhibitory rate (%), Dopamine D1
# Sequence of Dopamine D1 (P21728 whole entry): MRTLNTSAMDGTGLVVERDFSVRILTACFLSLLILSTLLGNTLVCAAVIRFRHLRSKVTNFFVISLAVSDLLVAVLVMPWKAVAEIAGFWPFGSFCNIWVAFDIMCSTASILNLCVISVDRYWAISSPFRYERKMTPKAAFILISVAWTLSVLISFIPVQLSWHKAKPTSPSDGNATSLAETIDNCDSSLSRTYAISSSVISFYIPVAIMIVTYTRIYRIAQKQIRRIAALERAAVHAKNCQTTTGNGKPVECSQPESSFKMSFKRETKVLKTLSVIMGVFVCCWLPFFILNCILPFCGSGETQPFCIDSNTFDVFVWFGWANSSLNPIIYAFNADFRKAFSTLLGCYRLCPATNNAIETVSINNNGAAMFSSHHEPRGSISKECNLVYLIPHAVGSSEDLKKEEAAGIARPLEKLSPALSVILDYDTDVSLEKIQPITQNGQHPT
# Estrogen ERα = Estrogen ERα (Homo sapiens (Human), UniProt P03372); assay: Radioligand binding assay No. 226010; conditions: test substance 10 μM, read-out: Inhibitory rate (%), Estrogen ERα
# Sequence of Estrogen ERα (P03372 whole entry): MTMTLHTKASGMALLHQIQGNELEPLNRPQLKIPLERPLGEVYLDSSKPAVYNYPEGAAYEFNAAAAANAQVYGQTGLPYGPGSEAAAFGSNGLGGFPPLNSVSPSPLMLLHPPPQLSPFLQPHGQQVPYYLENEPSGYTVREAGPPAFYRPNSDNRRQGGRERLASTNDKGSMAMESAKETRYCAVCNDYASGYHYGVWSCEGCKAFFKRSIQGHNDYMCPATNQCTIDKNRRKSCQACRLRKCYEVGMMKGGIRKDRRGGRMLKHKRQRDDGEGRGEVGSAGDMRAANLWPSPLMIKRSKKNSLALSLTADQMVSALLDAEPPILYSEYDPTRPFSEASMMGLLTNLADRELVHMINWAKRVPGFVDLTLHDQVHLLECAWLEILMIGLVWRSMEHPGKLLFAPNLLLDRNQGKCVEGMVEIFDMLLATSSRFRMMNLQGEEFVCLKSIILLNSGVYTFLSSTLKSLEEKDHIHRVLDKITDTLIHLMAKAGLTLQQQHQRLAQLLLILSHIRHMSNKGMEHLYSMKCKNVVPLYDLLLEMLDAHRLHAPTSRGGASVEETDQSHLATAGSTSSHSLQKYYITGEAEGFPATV
# [1] = target: Serotonin (5-Hydroxytryptamine) 5-HT1A (Homo sapiens (Human), UniProt P08908); assay: Radioligand binding assay No. 271110; conditions: test substance 10 μM, read-out: Inhibitory rate (%), Serotonin (5-Hydroxytryptamine) 5-HT1A
# Sequence of Serotonin (5-Hydroxytryptamine) 5-HT1A (P08908 whole entry): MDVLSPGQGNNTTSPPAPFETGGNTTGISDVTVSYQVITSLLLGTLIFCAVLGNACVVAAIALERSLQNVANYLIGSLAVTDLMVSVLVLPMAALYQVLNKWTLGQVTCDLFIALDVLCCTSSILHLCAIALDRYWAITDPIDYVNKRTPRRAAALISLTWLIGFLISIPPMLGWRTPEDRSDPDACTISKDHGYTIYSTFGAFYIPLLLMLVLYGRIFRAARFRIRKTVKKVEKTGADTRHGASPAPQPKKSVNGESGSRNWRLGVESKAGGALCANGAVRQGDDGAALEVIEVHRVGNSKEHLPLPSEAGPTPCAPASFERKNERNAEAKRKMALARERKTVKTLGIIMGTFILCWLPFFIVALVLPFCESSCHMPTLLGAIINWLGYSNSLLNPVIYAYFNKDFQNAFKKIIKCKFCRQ
# Sequence of AKT1 (P31749 whole entry, species assumed): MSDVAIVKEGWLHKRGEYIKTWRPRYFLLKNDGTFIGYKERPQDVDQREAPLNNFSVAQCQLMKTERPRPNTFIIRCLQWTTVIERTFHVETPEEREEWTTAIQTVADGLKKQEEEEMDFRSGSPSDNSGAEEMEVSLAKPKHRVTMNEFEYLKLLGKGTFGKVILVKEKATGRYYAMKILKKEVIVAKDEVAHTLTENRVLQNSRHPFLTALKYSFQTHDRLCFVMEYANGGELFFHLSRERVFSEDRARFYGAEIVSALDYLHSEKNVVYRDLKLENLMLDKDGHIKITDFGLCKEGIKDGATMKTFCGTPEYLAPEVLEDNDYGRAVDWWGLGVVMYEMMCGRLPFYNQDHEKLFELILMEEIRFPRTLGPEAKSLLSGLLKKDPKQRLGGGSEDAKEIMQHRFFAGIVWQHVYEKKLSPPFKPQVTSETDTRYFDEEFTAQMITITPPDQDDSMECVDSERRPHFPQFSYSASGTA
smiles,measurement,setting,value
"Nc1ccc(-c2ccc3ncc4c(=O)[nH]c(=O)n(-c5cccc(C(F)(F)F)c5)c4c3n2)cn1 [Compound 5, 9-(6-aminopyridin-3-yl)-1-(3-(trifluoromethyl)phenyl)pyrimido[5,4-c][1,5]naphthyridine-2,4(1H,3H)-dione]",IC50,AKT1,> 10000 nM
same,IC50,CSK,> 10000 nM
same,IC50,IGF1R,> 10000 nM
same,IC50,MST2,> 10000 nM
same,IC50,Tie2,2430 nM
same,inhibition at 10 µM,Adenosine A1,20%
same,inhibition at 10 µM,Dopamine D1,21%
same,inhibition at 10 µM,Estrogen ERα,17%
same,inhibition at 10 µM,[1],25%
